The source of these data is publication PMC12007285 (Microbial Cell Factories, 2025).

The subject of experiment [1] is RsNpcB (reductase component of two-component p-nitrophenol monooxygenase RsNcpAB). Kind of experiment: NADH/NADPH oxidation at […] nm. Type of experiment: biochemical, Rhodococcus sp. 21391. Particulars: 50 mM Tris–HCl pH 7.5, 25 °C.
Experiment [2] deals with p-nitrophenol monooxygenase oxidizing component RsNpcA (Rhodococcus sp. 21391) (UniProt Q6F4M8). Kind of experiment: SEC. (SEC sorts molecules by how far they enter the pores of the column.)

In the case of `Cc1cc2nc3c(=O)[nH]c(=O)nc-3n(C[C@H](O)[C@H](O)[C@H](O)COP(=O)(O)OP(=O)(O)OC[C@H]3O[C@@H](n4cnc5c(N)ncnc54)[C@H](O)[C@@H]3O)c2cc1C` [FAD], in experiment [1] (200 μM NADH, FAD varied 0.2–1.0 μM), the Km (usually the substrate concentration at which the rate is half of its maximum) stood at 0.11 ± 0.02 µM.
On to `Cc1cc2nc3c(=O)[nH]c(=O)nc-3n(C[C@H](O)[C@H](O)[C@H](O)COP(=O)(O)O)c2cc1C` [FMN], for which, in experiment [1] (200 μM NADH, FMN varied 0.2–1.0 μM), the Michaelis constant (Km) was 0.02 ± 0.007 µM.
On to `NC(=O)C1=CN([C@@H]2O[C@H](COP(=O)(O)OP(=O)(O)OC[C@H]3O[C@@H](n4cnc5c(N)ncnc54)[C@H](O)[C@@H]3O)[C@@H](O)[C@H]2O)C=CC1` [NADH], for which the Michaelis-Menten constant (Km) in experiment [1] (20 μM FAD, NADH varied 20–220 μM) is 45.5 ± 10.8 µM.
Consider `NC(=O)C1=CN([C@@H]2O[C@H](COP(=O)(O)OP(=O)(O)OC[C@H]3O[C@@H](n4cnc5c(N)ncnc54)[C@H](OP(=O)(O)O)[C@@H]3O)[C@@H](O)[C@H]2O)C=CC1` [NADPH], for which the Km in experiment [1] (20 μM FAD, NADPH varied 20–220 μM) was 16.4 ± 4.62 µM.
For the compound “p-nitrophenol monooxygenase oxidizing component RsNpcA (from UniProt Q6F4M8 1-528) (enzyme)”, in experiment [2], the stoichiometry N (in general, the number of molecules, sites or subunits per partner or assembly) stood at 4.
